Assay results from publication PMC11434868, “Synthesis and Antiproliferative Effect of 3,4,5-Trimethoxylated Chalcones on Colorectal and Prostatic Cancer Cells” (Pharmaceuticals, 2024).

Assays:
HCT116 [1] = assay: MTT assay, antiproliferative effect on HCT116; type: cell-based; conditions: Homo sapiens
Description: (§1) Human CRC (HCT116 and HT-29) and PCa (DU145 and PC3) cell lines were purchased from the American Type Culture Collection (ATCC—LGC Standards, Molsheim, France). All cells were grown in RPMI 1640 medium supplemented with 10% FBS, 1% L-glutamine, 100 U/mL penicillin, and 100 μg/mL streptomycin. Cultures were maintained in a humidified atmosphere containing 5% CO2 at 37 °C. Cells were seeded in 75 cm^2 culture flasks at 1.2 × 10^4 cells/cm^2 for HCT116, DU145, and PC3 cells, and 2.0 × 10^4 for HT-29 cells. Cells were grown for 24 h in culture medium prior to exposure or not to obtain the synthesized compounds. Stock solutions (10^−2 M in DMSO) of each compound were diluted in culture medium to obtain appropriate final concentrations.
(§2) • (a) MTT assay: The antiproliferative effect of all compounds was determined using MTT assay (a metabolic activity test). Briefly, cells were seeded in 96-well culture plates at 4 × 10^3 cells/well for HCT116, PC3, and DU145 cells and 6 × 10^3 cells/well for HT-29 cells (100 µL/well), and grown for 24 h in culture medium prior to exposure or not to obtain compounds 1–15 with concentrations ranging from 5 nM to 50 μM. After 24 and 48 h of treatment, MTT (5 mg/mL in PBS) was added and incubated for another 3 h. MTT was then removed from the wells before adding 100 μL/well of DMSO. The optical density was detected with a microplate reader (Multiskan FC, Thermoscientific, Bordeaux, France) at 550 nm and cell viability was expressed as a percentage of each treatment condition compared to control cells. IC50 values were calculated for all compounds from the dose–response curve. Data are expressed as the arithmetic means ± standard error of the mean (SEM) of separate experiments. All experiments were performed at least in triplicate. • (b) Trypan blue dye exclusion method: Cells were grown for 24 h then treated with compounds 10 and 13 at indicated concentrations. After 48 h of treatment, cells were trypsinized and resuspended in complete medium. Each sample was mixed with Trypan blue solution (0.14% in HBSS, Invitrogen-GIBCO, ThermoFisher, Illkirch, France). Colored (non-viable) and dye-excluding (viable) cells were counted with the LUNA-II automated cell Counter (Logos Biosystems; MC2, Aubière, France). The control was normalized to 100% including viable and dead cells. The results indicated on the histograms were expressed as the percentage of cells compared to the control. IC50 values were determined from the percentages of viable cells compared to the control.

DU145 [2] = assay: MTT assay, antiproliferative effect on DU145; type: cell-based; conditions: Homo sapiens
Description: as §1, §2

HCT116 [3] = assay: Trypan blue dye exclusion method on HCT116; type: cell-based, human
Description: as §1, §2

DU145 [4] = assay: Trypan blue dye exclusion method on DU145; type: cell-based, human
Description: as §1, §2

HT-29 [5] = assay: Trypan blue dye exclusion method on HT-29; type: cell-based, human
Description: as §1, §2

[6] = test system: caspase-3 and PARP in DU145 cells; assay: Western blot of apoptosis-related proteins in DU145; type: cell-based, human; conditions: DU145, 48 h;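 further: compared with untreated control cells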
Description: (§3) For total protein extraction, collected samples of each condition were washed in PBS. Then, the total cell pool was centrifuged at 200 g for 5 min at 4 °C and homogenized in RIPA lysis buffer (50 mM HEPES, pH 7.5, 150 mM NaCl, 1% sodium deoxycholate, 1% NP-40, 0.1% SDS, […] of aprotinin) containing protease inhibitors according to the manufacturer’s instructions. After quantification of protein levels using the Bradford method, proteins ([…]) were separated on 12.5% SDS-PAGE gels and transferred to PVDF membranes (GE Healthcare Life Science—Fisher Scientific). Membranes were probed with respective antibodies against human caspase-3, cleaved caspase-3, and PARP according to the manufacturer’s instructions. After incubation with appropriate secondary antibodies, blots were developed using the “ImmobilonWestern” substrate, following the manufacturer’s protocol, and G:BOX system (Syngene, Cambridge, UK). Membranes were then reblotted with human anti-β-actin used as a loading control.

[7] = test system: caspase-3 and PARP in HT-29 cells; assay: Western blot of apoptosis-related proteins in HT-29; type: cell-based, human; conditions: HT-29, 48 h;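 further: compared with untreated control cells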
Description: as §3

PC3 [8] = assay: Trypan blue dye exclusion method on PC3; type: cell-based, human
Description: as §1, §2

PC3 [9] = assay: MTT assay, antiproliferative effect on PC3; type: cell-based; conditions: Homo sapiens
Description: as §1, §2

[10] = test system: caspase-3 and PARP in PC3 cells; assay: Western blot of apoptosis-related proteins in PC3; type: cell-based, human; conditions: PC3, 48 h;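 further: compared with untreated control cells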
Description: as §3

HT-29 [11] = assay: MTT assay, antiproliferative effect on HT-29; type: cell-based, human; conditions: Homo sapiens
Description: as §1, §2

[12] = test system: caspase-3 and PARP in HCT116 cells; assay: Western blot of apoptosis-related proteins in HCT116; type: cell-based, human; conditions: HCT116, 48 h;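 further: compared with untreated control cells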
Description: as §3

IC50 (HCT116 [1]; HCT-116, 24 h, read-out: IC50 HCT116 24 h): 282 ± 12 nM
IC50 (HCT116 [1]; HCT-116, 48 h, read-out: IC50 HCT116 48 h): 39 ± 1 nM
IC50 (DU145 [2]; DU-145, 24 h, read-out: IC50 DU145 24 h): 51 ± 6 nM
IC50 (DU145 [2]; DU-145, 48 h, read-out: IC50 DU145 48 h): 20 ± 2 nM
IC50 (HCT116 [3]; Homo sapiens, HCT-116, 48 h, from percentages of viable cells, read-out: IC50 Trypan Blue Test HCT116): 43 nM
IC50 (DU145 [4]; Homo sapiens, DU-145, 48 h, from percentages of viable cells, read-out: IC50 Trypan Blue Test DU145): 40 nM
IC50 (HT-29 [5]; Homo sapiens, HT-29, 48 h, from percentages of viable cells, read-out: IC50 Trypan Blue Test HT-29): 21 nM
IC50 (PC3 [8]; Homo sapiens, PC-3, 48 h, from percentages of viable cells, read-out: IC50 Trypan Blue Test PC3): 32 nM
IC50 (PC3 [9]; PC-3, 24 h, read-out: IC50 PC3 24 h): 44 ± 6 nM
IC50 (PC3 [9]; PC-3, 48 h, read-out: IC50 PC3 48 h): 17 ± 5 nM
IC50 (HT-29 [11]; HT-29, 24 h, 24 h, read-out: IC50 HT-29 24 h): 41 ± 1 nM
IC50 (HT-29 [11]; HT-29, 48 h, 48 h, read-out: IC50 HT-29 48 h): 28 ± 1 nM
SMILES: COc1cc(C(=O)/C=C/c2c[nH]c3ccccc23)cc(OC)c1OC [chalcone 10, (E)-3-(1H-indol-3-yl)-1-(3,4,5-trimethoxyphenyl)prop-2-en-1-one]
Dead cells (HCT116 [3]; HCT116, 48 h, 0.050 µM): 6.76%
Dead cells (HCT116 [3]; HCT116, 48 h, 0.100 µM): 0.85%
viability at 0.01 µM (HCT116 [3]; Homo sapiens, HCT-116, HCT116, 48 h, 0.010 µM, percentage of cells compared to control, read-out: Viable cells): 97.7%
viability at 0.05 µM (HCT116 [3]; Homo sapiens, HCT-116, HCT116, 48 h, 0.050 µM, read-out: Viable cells): 43.2%
viability at 0.1 µM (HCT116 [3]; Homo sapiens, HCT-116, HCT116, 48 h, 0.100 µM, read-out: Viable cells): 17.4%
Dead cells (DU145 [4]; DU145, 48 h, 0.010 µM): 2.21%
Dead cells (DU145 [4]; DU145, 48 h, 0.050 µM): 3.40%
Dead cells (DU145 [4]; DU145, 48 h, 0.100 µM): 5.30%
viability at 0.01 µM (DU145 [4]; Homo sapiens, DU-145, DU145, 48 h, 0.010 µM, read-out: Viable cells): 88.9%
viability at 0.05 µM (DU145 [4]; Homo sapiens, DU-145, DU145, 48 h, 0.050 µM, read-out: Viable cells): 40.6%
viability at 0.1 µM (DU145 [4]; Homo sapiens, DU-145, DU145, 48 h, 0.100 µM, read-out: Viable cells): 18.4%
Dead cells (HT-29 [5]; HT-29, 48 h, 0.010 µM): 3.78%
Dead cells (HT-29 [5]; HT-29, 48 h, 0.050 µM): 3.36%
Dead cells (HT-29 [5]; HT-29, 48 h, 0.100 µM): 1.68%
viability at 0.01 µM (HT-29 [5]; Homo sapiens, HT-29, 48 h, 0.010 µM, read-out: Viable cells): 76.2%
viability at 0.05 µM (HT-29 [5]; Homo sapiens, HT-29, 48 h, 0.050 µM, read-out: Viable cells): 15.9%
viability at 0.1 µM (HT-29 [5]; Homo sapiens, HT-29, 48 h, 0.100 µM, read-out: Viable cells): 10.7%
PARP cleavage (89 kDa fragment) [6]: induced PARP cleavage
cleaved caspase-3 [6]: clearly observed
native PARP expression [6]: strong decreased expression
pro-caspase-3 expression [6]: decrease was less marked
PARP cleavage (89 kDa fragment) [7]: induced PARP cleavage
cleaved caspase-3 [7]: more weakly produced
native PARP expression [7]: strong decreased expression
pro-caspase-3 expression [7]: decreased
viability at 0.01 µM (PC3 [8]; Homo sapiens, PC-3, PC3, 48 h, 0.010 µM, read-out: Viable cells): 91.9%
viability at 0.05 µM (PC3 [8]; Homo sapiens, PC-3, PC3, 48 h, 0.050 µM, read-out: Viable cells): 31.3%
viability at 0.1 µM (PC3 [8]; Homo sapiens, PC-3, PC3, 48 h, 0.100 µM, read-out: Viable cells): 16.5%
Dead cells (PC3 [8]; PC3, 48 h, 0.010 µM): 9.33%
Dead cells (PC3 [8]; PC3, 48 h, 0.100 µM): 4.44%
PARP cleavage (89 kDa fragment) [10]: induced PARP cleavage
cleaved caspase-3 [10]: clearly observed
native PARP expression [10]: strong decreased expression
pro-caspase-3 expression [10]: decreased
PARP cleavage (89 kDa fragment) [12]: induced PARP cleavage
cleaved caspase-3 [12]: clearly observed
native PARP expression [12]: strong decreased expression
pro-caspase-3 expression [12]: decreased
